The record followed here is patent publication US20160083357A1, “NOVEL TETRAZOLONE DERIVATIVES” (Hoffmann-La Roche Inc., priority 2013, published 2016).

By EC50 is commonly meant the concentration at which the effect is half-maximal.

One test concerns the target T1, human CB2 receptors (Homo sapiens, UniProt P34972).
T1 construct: expressed in transfected cells; host or cells: CHO cells
Description: cAMP assay, human CB2. The format is cell-based. Particulars: functional cAMP assay, CHO cells expressing human CB2; read-out: Ec50: CB2 - hu cAMP. Here is the method: (§1) CHO cells expressing human CB1 or CB2 receptors are seeded 17-24 hours prior to the experiment 50.000 cells per well in a black 96 well plate with flat clear bottom (Corning Costar #3904) in DMEM (Invitrogen No. 31331), lx HT supplement, with 10% fetal calf serum and incubated at 5% CO2 and 37° C. in a humidified incubator. The growth medium was exchanged with Krebs Ringer Bicarbonate buffer with 1 mM IBMX and incubated at 30° C. for 30 min. Compounds were added to a final assay volume of 100 μl and incubated for 30 min at 30° C. Using the cAMP-Nano-TRF detection kit the assay (Roche Diagnostics) was stopped by the addition of 50 μl lysis reagent (Tris, NaCl, 1.5% Triton X100, 2.5% NP40, 10% NaN3) and 50 μl detection solutions (20 μM mAb Alexa700-cAMP 1:1, and 48 μM Ruthenium-2-AHA-cAMP) and shaken for 2 h at room temperature. The time-resolved energy transfer is measured by a TRF reader (Evotec Technologies GmbH), equipped with a ND:YAG laser as excitation source. The plate is measured twice with the excitation at 355 nm and at the emission with a delay of 100 ns and a gate of 100 ns, total exposure time 10 s at 730 (bandwidth 30 nm) or 645 nm (bandwidth 75 nm), respectively. The FRET signal is calculated as follows: FRET=T730-Alexa730-P(T645-B645) with P=Ru730-B730/Ru645-B645, where T730 is the test well measured at 730 nM, T645 is the test well measured at 645 nm, B730 and B645 are the buffer controls at 730 nm and 645 nm, respectively. cAMP content is determined from the function of a standard curve spanning from 10 μM to 0.13 nM cAMP.
(§2) EC50 values were determined using Activity Base analysis (ID Business Solution, Limited). The EC50 values for a wide range of cannabinoid agonists generated from this assay were in agreement with the values published in the scientific literature.
For orientation: Cyclic AMP is a second messenger, typically raised through Gs and lowered through Gi signalling.

For a further test, the target named is T2, human CB1 receptors (Homo sapiens, UniProt P21554).
T2 construct: expressed in transfected cells; host or cells: CHO cells
The test is described as follows: cAMP assay, human CB1. The format is cell-based. Particulars: functional cAMP assay, CHO cells expressing human CB1; read-out: Ec50: CB1 - hu cAMP. Here is the method: as §1, §2

T2 sequence (P21554 whole entry): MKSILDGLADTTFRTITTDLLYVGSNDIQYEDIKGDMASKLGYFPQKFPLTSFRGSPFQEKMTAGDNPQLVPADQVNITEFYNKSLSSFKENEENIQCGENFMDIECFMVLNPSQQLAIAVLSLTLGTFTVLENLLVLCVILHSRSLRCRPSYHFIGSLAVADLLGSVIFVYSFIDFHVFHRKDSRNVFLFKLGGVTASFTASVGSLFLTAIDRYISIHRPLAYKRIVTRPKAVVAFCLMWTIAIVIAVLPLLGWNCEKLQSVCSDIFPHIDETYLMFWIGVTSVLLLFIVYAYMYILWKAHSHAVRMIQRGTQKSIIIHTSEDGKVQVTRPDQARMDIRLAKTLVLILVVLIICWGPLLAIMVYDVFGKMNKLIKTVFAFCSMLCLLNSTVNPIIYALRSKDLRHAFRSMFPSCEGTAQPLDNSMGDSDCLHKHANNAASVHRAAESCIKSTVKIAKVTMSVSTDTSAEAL
T1 sequence (P34972 whole entry): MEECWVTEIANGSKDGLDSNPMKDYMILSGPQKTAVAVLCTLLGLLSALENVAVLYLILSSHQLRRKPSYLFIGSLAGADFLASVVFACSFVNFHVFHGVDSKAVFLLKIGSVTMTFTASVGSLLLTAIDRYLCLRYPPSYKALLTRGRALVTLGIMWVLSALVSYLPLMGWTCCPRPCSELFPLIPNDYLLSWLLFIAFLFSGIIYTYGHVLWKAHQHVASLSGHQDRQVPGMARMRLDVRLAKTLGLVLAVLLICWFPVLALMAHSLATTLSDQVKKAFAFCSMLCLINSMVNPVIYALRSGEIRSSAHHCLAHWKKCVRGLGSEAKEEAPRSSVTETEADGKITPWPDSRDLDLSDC

For `Cc1noc(C2CCCN2C(=O)n2nnn(-c3cccc(F)c3)c2=O)n1` (centres unmarked) [Example 25, 1-(3-Fluoro-phenyl)-4-[2-(3-methyl-[1,2,4]oxadiazol-5-yl)-pyrrolidine-1-carbonyl]-1,4-dihydro-tetrazol-5-one], the results for the 50% effective concentration (EC50) at human CB2 receptors and at human CB1 receptors were 26 nM and greater than 10000 nM, respectively.

In the case of `CC(=O)NC1CCN(C(=O)n2nnn(-c3cccc(F)c3)c2=O)CC1` [Example 26, N-{1-[4-(3-Fluoro-phenyl)-5-oxo-4,5-dihydro-tetrazole-1-carbonyl]-piperidin-4-yl}-acetamide], the figures for the EC50 at human CB2 receptors and at human CB1 receptors were 17.8 nM and greater than 10000 nM, respectively.

Regarding `O=C(CN1CCN(C(=O)n2nnn(-c3cccc(F)c3)c2=O)CC1)N1CCCC1` [Example 27, 1-(3-Fluoro-phenyl)-4-[4-(2-oxo-2-pyrrolidin-1-yl-ethyl)-piperazine-1-carbonyl]-1,4-dihydro-tetrazol-5-one], the figures for the EC50 at human CB2 receptors and on human CB1 receptors were 7.1 nM and greater than 10000 nM, respectively.

With `CC1(C)CCN(C(=O)n2nnn(-c3cccc(F)c3)c2=O)CC1` [Example 28, 1-(4,4-Dimethyl-piperidine-1-carbonyl)-4-(3-fluoro-phenyl)-1,4-dihydro-tetrazol-5-one], the EC50 was 0.8 nM on human CB2 receptors and greater than 10000 nM on human CB1 receptors.

Turning to `O=C(N1CCS(=O)(=O)CC1)n1nnn(-c2cccc(F)c2)c1=O` [Example 29, 1-(1,1-Dioxo-1λ6-thiomorpholine-4-carbonyl)-4-(3-fluoro-phenyl)-1,4-dihydro-tetrazol-5-one], the EC50 on human CB2 receptors is 41.6 nM; on human CB1 receptors it was greater than 10000 nM.

On to `O=C(N1CCN(c2cnccn2)CC1)n1nnn(-c2cccc(F)c2)c1=O` [Example 30, 1-(3-Fluoro-phenyl)-4-(2,3,5,6-tetrahydro-[1,2′]bipyrazinyl-4-carbonyl)-1,4-dihydro-tetrazol-5-one], for which the concentration for a half-maximal effect (EC50) is 205 nM at human CB2 receptors and greater than 10000 nM on human CB1 receptors.

Consider `N#CCCN(C(=O)n1nnn(-c2cccc(F)c2)c1=O)C1CC1` [Example 31, 4-(3-Fluoro-phenyl)-5-oxo-4,5-dihydro-tetrazole-1-carboxylic acid (2-cyano-ethyl)-cyclopropyl-amide], for which the half-maximal effective concentration (EC50) is 166 nM on human CB2 receptors and greater than 10000 nM on human CB1 receptors.

For the molecule `CN(C(=O)n1nnn(-c2cccc(F)c2)c1=O)c1ccccn1` [Example 32, 4-(3-Fluoro-phenyl)-5-oxo-4,5-dihydro-tetrazole-1-carboxylic acid methyl-pyridin-2-yl-amide], the EC50 is 152 nM at human CB2 receptors and greater than 10000 nM on human CB1 receptors.

On to `CN(C(=O)n1nnn(-c2cccc(F)c2)c1=O)c1cccnc1` [Example 33, 4-(3-Fluoro-phenyl)-5-oxo-4,5-dihydro-tetrazole-1-carboxylic acid methyl-pyridin-3-yl-amide], for which the values for the 50% effective concentration (EC50) on human CB2 receptors and at human CB1 receptors were 25 nM and greater than 10000 nM, respectively.

`COCC1CCCCN1C(=O)n1nnn(-c2cccc(F)c2)c1=O` (centres unmarked) [Example 34, 1-(3-Fluoro-phenyl)-4-(2-methoxymethyl-piperidine-1-carbonyl)-1,4-dihydro-tetrazol-5-one]: the 50% effective concentration (EC50) at human CB2 receptors was 19 nM; at human CB1 receptors, greater than 10000 nM.

As to `CN(C(=O)n1nnn(C2CC2)c1=O)c1cccnc1` [Example 35, 4-Cyclopropyl-5-oxo-4,5-dihydro-tetrazole-1-carboxylic acid methyl-pyridin-3-yl-amide], the 50% effective concentration (EC50) on human CB2 receptors was 161 nM; on human CB1 receptors it was greater than 10000 nM.

`CCCn1nnn(C(=O)N(C)c2cccnc2)c1=O` [Example 36, 5-Oxo-4-propyl-4,5-dihydro-tetrazole-1-carboxylic acid methyl-pyridin-3-yl-amide]: the figures for the EC50 on human CB2 receptors and on human CB1 receptors were 874 nM and greater than 10000 nM, respectively.

As to `CC(C)Cn1nnn(C(=O)N(C)c2cccnc2)c1=O` [Example 37, 4-Isobutyl-5-oxo-4,5-dihydro-tetrazole-1-carboxylic acid methyl-pyridin-3-yl-amide], the values for the EC50 on human CB2 receptors and on human CB1 receptors were 407 nM and greater than 10000 nM, respectively.

Consider `CC(=O)N1CCN(C(=O)n2nnn(-c3cccc(F)c3)c2=O)CC1` [Example 38, 1-(4-Acetyl-piperazine-1-carbonyl)-4-(3-fluoro-phenyl)-1,4-dihydro-tetrazol-5-one], for which the EC50 at human CB2 receptors is 92 nM; at human CB1 receptors it was greater than 10000 nM.

Regarding `CCC(=O)N1CCN(C(=O)n2nnn(-c3cccc(F)c3)c2=O)CC1` [Example 39, 1-(3-Fluoro-phenyl)-4-(4-propionyl-piperazine-1-carbonyl)-1,4-dihydro-tetrazol-5-one], the 50% effective concentration (EC50) is 497 nM on human CB2 receptors and greater than 10000 nM at human CB1 receptors.

Take `CCN(CC)C(=O)N1CCN(C(=O)n2nnn(-c3cccc(F)c3)c2=O)CC1` [Example 40, 4-[4-(3-Fluoro-phenyl)-5-oxo-4,5-dihydro-tetrazole-1-carbonyl]-piperazine-1-carboxylic acid diethylamide]: the results for the EC50 on human CB2 receptors and on human CB1 receptors were 52.8 nM and greater than 10000 nM, respectively.

In the case of `O=C(N1CCC(c2ccccc2)C1)n1nnn(-c2cccc(F)c2)c1=O` (centres unmarked) [Example 41, 1-(3-Fluoro-phenyl)-4-(3-phenyl-pyrrolidine-1-carbonyl)-1,4-dihydro-tetrazol-5-one], the values for the concentration for a half-maximal effect (EC50) on human CB2 receptors and on human CB1 receptors were 3.2 nM and greater than 10000 nM, respectively.

For `CC(=O)N[C@H]1CCN(C(=O)n2nnn(-c3cccc(F)c3)c2=O)C1` [Example 42, N—{(S)-1-[4-(3-Fluoro-phenyl)-5-oxo-4,5-dihydro-tetrazole-1-carbonyl]-pyrrolidin-3-yl}-acetamide], the EC50 is 91.1 nM on human CB2 receptors and greater than 10000 nM on human CB1 receptors.

As to `CC(=O)N[C@@H]1CCN(C(=O)n2nnn(-c3cccc(F)c3)c2=O)C1` [Example 43, N—{(R)-1-[4-(3-Fluoro-phenyl)-5-oxo-4,5-dihydro-tetrazole-1-carbonyl]-pyrrolidin-3-yl}-acetamide], the 50% effective concentration (EC50) was 25.8 nM on human CB2 receptors and greater than 10000 nM on human CB1 receptors.

Regarding `CCN(C(C)=O)C1CCN(C(=O)n2nnn(-c3cccc(F)c3)c2=O)C1` (centres unmarked) [Example 44, N-Ethyl-N-{1-[4-(3-fluoro-phenyl)-5-oxo-4,5-dihydro-tetrazole-1-carbonyl]-pyrrolidin-3-yl}-acetamide], the results for the EC50 on human CB2 receptors and on human CB1 receptors were 13.8 nM and greater than 10000 nM, respectively.

Consider `O=C(N1CCC(F)(F)C1)n1nnn(-c2cccc(F)c2)c1=O` [Example 45, 1-(3,3-Difluoro-pyrrolidine-1-carbonyl)-4-(3-fluoro-phenyl)-1,4-dihydro-tetrazol-5-one], for which the results for the EC50 at human CB2 receptors and on human CB1 receptors were 797 nM and greater than 10000 nM, respectively.

`CC1(C)CCCN1C(=O)n1nnn(-c2cccc(F)c2)c1=O` [Example 46, 1-(2,2-Dimethyl-pyrrolidine-1-carbonyl)-4-(3-fluoro-phenyl)-1,4-dihydro-tetrazol-5-one]: the 50% effective concentration (EC50) at human CB2 receptors was 90.2 nM; at human CB1 receptors it was greater than 10000 nM.

Take `CC1(C)CCN(C(=O)n2nnn(-c3cccc(F)c3)c2=O)C1` [Example 47, 1-(3,3-Dimethyl-pyrrolidine-1-carbonyl)-4-(3-fluoro-phenyl)-1,4-dihydro-tetrazol-5-one]: the concentration giving a half-maximal response (EC50) is 2.7 nM at human CB2 receptors and greater than 10000 nM on human CB1 receptors.

On to `CC1CCCN1C(=O)n1nnn(-c2cccc(F)c2)c1=O` (centres unmarked) [Example 48, 1-(3-Fluoro-phenyl)-4-(2-methyl-pyrrolidine-1-carbonyl)-1,4-dihydro-tetrazol-5-one], for which the EC50 on human CB2 receptors was 6.7 nM; at human CB1 receptors it was greater than 10000 nM.

Take `CC(=O)N(C)C1CCN(C(=O)n2nnn(-c3cccc(F)c3)c2=O)C1` (centres unmarked) [Example 49, N-{1-[4-(3-Fluoro-phenyl)-5-oxo-4,5-dihydro-tetrazole-1-carbonyl]-pyrrolidin-3-yl}-N-methyl-acetamide]: the concentration for a half-maximal effect (EC50) at human CB2 receptors was 14.3 nM; on human CB1 receptors it was greater than 10000 nM.

In the case of `CCOC(=O)N1CCN(C(=O)n2nnn(-c3cccc(F)c3)c2=O)CC1` [Example 50, 4-[4-(3-Fluoro-phenyl)-5-oxo-4,5-dihydro-tetrazole-1-carbonyl]-piperazine-1-carboxylic acid ethyl ester], the EC50 is 567 nM on human CB2 receptors and greater than 10000 nM at human CB1 receptors.

In the case of `N#C[C@@H]1CCCN1C(=O)n1nnn(-c2cccc(F)c2)c1=O` [Example 51, (S)-1-[4-(3-Fluoro-phenyl)-5-oxo-4,5-dihydro-tetrazole-1-carbonyl]-pyrrolidine-2-carbonitrile], the 50% effective concentration (EC50) at human CB2 receptors is 154 nM; on human CB1 receptors, greater than 10000 nM.

`N#C[C@H]1CCCN1C(=O)n1nnn(-c2cccc(F)c2)c1=O` [Example 52, (R)-1-[4-(3-Fluoro-phenyl)-5-oxo-4,5-dihydro-tetrazole-1-carbonyl]-pyrrolidine-2-carbonitrile]: the EC50 is 129 nM on human CB2 receptors and greater than 10000 nM on human CB1 receptors.
